Earlier results as cited in patent publication US20070183984A1, “CALCIUM PHOSPHATE SALTS IN ORAL COMPOSITIONS SUITABLE AS A TOOTH REMINERALIZING AGENT” (WM. WRIGLEY JR. COMPANY, priority 2006, published 2007).

Conditions: g in about 100 ml of water at about 20° C.

Which solubility in water does the source give for `O=C(O)/C=C/C(=O)O` [fumaric acid] here?
Its solubility in water is “about 0.6%”.

With `O=C(O)CC(O)C(=O)O` (stereo not drawn) [malic acid] as the compound, how does the solubility in water read?
Its solubility in water is “about 55%”.

Which solubility in water does the source give for polyaspartic acid here?
Its solubility in water is “about 5%”.

For polyglutamic acid, which solubility in water is on record?
Its solubility in water is “about 5%”.

Conditions: octanol/water partition coefficient

Which “Log Pow” value does the source give for `O=C(O)CCCCC(=O)O` [adipic acid] here?
Its value is 0.08.

For `O=C(O)CC(O)C(=O)O` (stereo not drawn) [malic acid], which “Log Pow” value is on record?
The value was −1.26.
